# In article PMC6753678, “Fueling Open Innovation for Malaria Transmission-Blocking Drugs: Hundreds of Molecules Targeting Early Parasite Mosquito Stages” (Frontiers in Microbiology, 2019):
# “And” between values parts separate entries of the source, which are not always exact repeats. Equal values may be shown once. Read-outs that look alike come from different tables or passages of the source.
# Legend:
# [1] = tested on: 3D7-strain P. falciparum asexual parasites; test: P. falciparum asexual growth inhibition assay (Pf GIA); assay type: cell-based, Plasmodium falciparum
# Summary of the method: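 LDH readout: absorbance at 650 nm after 10 min at room temperature with lactate/APAD/NBT/diaphorase mix on thawed plates. Cultures (0.25% parasitemia, 2% hematocrit) were treated 72 h at 37°C in low-oxygen gas. Inhibition was normalised to 50 μM chloroquine and DMSO; n=3 biological replicates.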
# HepG2 cells [2] = test: HepG2 cytotoxicity assay; details: for Pb ODA (this manuscript) HepG2 cytoxicity: HepG2 cytotoxicity listed with the Pb ODA data set (this manuscript)
# Summary of the method: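 HepG2 cells, 2,500 per well in MEM with 10% FBS and 1% NEAA, exposed to compounds for 48 h at 37°C, 5% CO2. Viability read by fluorescence; percent inhibition relative to 50 μM doxorubicin and DMSO controls.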
# [3] = tested on: P. berghei ookinete development
# [4] = tested on: P. berghei ookinete development; test: microbe, parasite or virus in culture; details: Plasmodium berghei
# [5] = tested on: P. berghei oocyst intensity in Anopheles stephensi mosquitoes; test: P. berghei standard membrane feeding assay (Pb SMFA); details: for Raw mosquito counts (oocysts per mosquito): one mosquito per cell; for Number of oocysts counted per mosquito (raw mosquito counts): individual mosquito
# [6] = tested on: P. falciparum male gametocytes; test: P. falciparum Dual Gamete Formation Assay (Pf DGFA), male readout; details: for Pf DGFA Male, Expt 1 / Pf DGFA Male, Expt 2 / Pf DGFA Male, Expt 3 / Pf DGFA Male, Expt 4: 1µM; for inhibition at 1 µM: Plasmodium falciparum, read-out: % inhibition Pf DGFA (male) 1 μM (±SEM), 1 μM, mean of four experiments
# [7] = tested on: P. falciparum female gametocytes; test: P. falciparum Dual Gamete Formation Assay (Pf DGFA), female readout; details: for Pf DGFA Female, Expt 1 / Pf DGFA Female, Expt 2 / Pf DGFA Female, Expt 3 / Pf DGFA Female, Expt 4: 1µM; for % inhibition Pf DGFA (female) 1 μM (±SEM): mean of four experiments; for inhibition at 1 µM: Plasmodium falciparum, read-out: % inhibition Pf DGFA (female) 1 μM (±SEM), 1 μM, mean of four experiments
# [8] = tested on: P. falciparum late stage (stages IV-V) gametocytes; parameters: method as in Almela et al 2016; details: TCAMS screen comparison; ref Almela et al 2016; read-out: Pf GCT ATP IC50; cited from earlier work
# [9] = tested on: P. falciparum female gametocytes; parameters: method as in Miguel-Blanco et al 2017; details: TCAMS screen comparison; ref Miguel-Blanco et al 2017; read-out: Pf FGAA IC50; cited from earlier work
# HepG2 cells [10] = details: cited from earlier work
# [11] = tested on: P. falciparum female gametocytes; test: P. falciparum female gametogenesis assay (Pf FGAA); details: 1: YES; 0: NO
# [12] = tested on: P. falciparum late stage (stages IV-V) gametocytes; test: P. falciparum late stage gametocyte ATP depletion assay (Pf GC-ATP); details: 1: YES; 0: NO
# [13] = Plasmodium falciparum, 3D7, dose response confirmation, read-out: Pf asexual growth inhibition assays IC50
# [14] = Plasmodium falciparum, 3D7, 72 h, LDH readout, read-out: IC50 Pf Asexual
# [15] = Homo sapiens, HepG2, 48 h, read-out: IC50 HepG2
# [16] = read-out: % inhibition, Replicate A
# [17] = read-out: % inhibition, Replicate B
# [18] = read-out: IC50 Pb ODA, dose response, at least triplicate
# [19] = read-out: % inhibition Pb SMFA 1 μM (±SEM), inhibition of oocyst intensity at 1 μM
smiles,measurement,setting,value
Cc1[nH]c(C)c(-c2ccc(CCc3ccc(F)cc3F)cc2)c(=O)c1Br [TCMDC-135461],IC50,[1]; [13],3 nM
same,IC50,[1]; [14],3.1 nM
same,Pb ODA (this manuscript) HepG2 cytoxicity,HepG2 cells [2],100.00 µM
same,IC50,HepG2 cells [2]; [15],> 100000 nM
same,Is compound selective in assay? Pb ODA active?,[3],1 (key: 1: YES; 0: NO)
same,inhibition at 1 µM,[4]; [16],68.3%
same,inhibition at 1 µM,[4]; [17],109%
same,IC50,[4]; [18],< 0.0002 µM
same,Mean (number of oocysts counted per mosquito),"[5]; Experiment 4, 10nM",0.78
same,Prevalence,"[5]; Experiment 4, 10nM",45.65
same,Mean (number of oocysts counted per mosquito),"[5]; Experiment 4, 100nM",0.00
same,Mean (number of oocysts counted per mosquito),"[5]; Experiment 4, 1µM",0.00
same,Prevalence,"[5]; Experiment 4, 1µM",0.00
same,Raw mosquito counts (oocysts per mosquito),"[5]; Experiment 4, 100nM",0
same,Raw mosquito counts (oocysts per mosquito),"[5]; Experiment 4, 1µM",0
same,Mean (number of oocysts counted per mosquito),"[5]; Experiment 5, 10nM",2.70
same,Prevalence,"[5]; Experiment 5, 10nM",45.65
same,Mean (number of oocysts counted per mosquito),"[5]; Experiment 5, 100nM",1.53
same,Number of oocysts counted per mosquito (raw mosquito counts),"[5]; Experiment 5, 100nM",0 and 1 and 3
same,Mean (number of oocysts counted per mosquito),"[5]; Experiment 5, 1µM",0.00
same,Prevalence,"[5]; Experiment 5, 1µM",0.00
same,Number of oocysts counted per mosquito (raw mosquito counts),"[5]; Experiment 5, 1µM",0
same,Raw mosquito counts (oocysts per mosquito),"[5]; Experiment 5, 1µM",0
same,Mean (number of oocysts counted per mosquito),"[5]; Experiment 6, 10nM",58.31
same,Prevalence,"[5]; Experiment 6, 10nM",98.15
same,Mean (number of oocysts counted per mosquito),"[5]; Experiment 6, 100nM",21.75
same,Prevalence,"[5]; Experiment 6, 100nM",86.76
same,Number of oocysts counted per mosquito (raw mosquito counts),"[5]; Experiment 6, 100nM",30
same,Mean (number of oocysts counted per mosquito),"[5]; Experiment 6, 1µM",0.00
same,Prevalence,"[5]; Experiment 6, 1µM",0.00
same,Number of oocysts counted per mosquito (raw mosquito counts),"[5]; Experiment 6, 1µM",0
same,Raw mosquito counts (oocysts per mosquito),"[5]; Experiment 6, 1µM",0
same,inhibition at 0.1 µM,"[5]; read-out: % inhibition (oocyst intensity), Experiment 4, 100nM, vs DMSO",100%
same,inhibition at 1 µM,"[5]; read-out: % inhibition (oocyst intensity), Experiment 4, 1µM, vs DMSO",100%
same,inhibition at 0.01 µM,"[5]; read-out: % inhibition (oocyst intensity), Experiment 5, 10nM, vs DMSO",28.9%
same,inhibition at 0.1 µM,"[5]; read-out: % inhibition (oocyst intensity), Experiment 5, 100nM, vs DMSO",59.6%
same,inhibition at 1 µM,"[5]; read-out: % inhibition (oocyst intensity), Experiment 5, 1µM, vs DMSO",100%
same,inhibition at 0.01 µM,"[5]; read-out: % inhibition (oocyst intensity), Experiment 6, 10nM, vs DMSO",30.5%
same,inhibition at 0.1 µM,"[5]; read-out: % inhibition (oocyst intensity), Experiment 6, 100nM, vs DMSO",74.1%
same,inhibition at 1 µM,"[5]; read-out: % inhibition (oocyst intensity), Experiment 6, 1µM, vs DMSO",100%
same,inhibition at 1 µM,[5]; [19],100%
same,inhibition at 1 µM,"[5]; read-out: % prev inhibition, Experiment 4, 1µM, vs DMSO",100%
same,inhibition at 1 µM,"[5]; read-out: % prev inhibition, Experiment 5, 1µM, vs DMSO",100%
same,inhibition at 0.01 µM,"[5]; read-out: % prev inhibition, Experiment 6, 10nM, vs DMSO",1.85%
same,inhibition at 0.1 µM,"[5]; read-out: % prev inhibition, Experiment 6, 100nM, vs DMSO",13.2%
same,inhibition at 1 µM,"[5]; read-out: % prev inhibition, Experiment 6, 1µM, vs DMSO",100%
same,inhibition at 0.01 µM,"[5]; read-out: inhibition of oocyst intensity Pb SMFA, 10 nM",43%
same,inhibition at 0.1 µM,"[5]; read-out: inhibition of oocyst intensity Pb SMFA, 100 nM",77.9%
same,"Pf DGFA Male, Expt 1",[6],97.72
same,"Pf DGFA Male, Expt 2",[6],60.95
same,"Pf DGFA Male, Expt 3",[6],69.63
same,"Pf DGFA Male, Expt 4",[6],73.29
same,inhibition at 1 µM,[6],75.4%
same,"Pf DGFA Female, Expt 1",[7],72.43
same,"Pf DGFA Female, Expt 2",[7],81.97
same,"Pf DGFA Female, Expt 3",[7],-31.20
same,"Pf DGFA Female, Expt 4",[7],-13.42
same,% inhibition Pf DGFA (female) 1 μM (±SEM),[7],27.45%
same,inhibition at 1 µM,[7],27.4%
COc1cc(-c2cc(-c3ccc(S(C)(=O)=O)cc3)cnc2N)ccc1O [TCMDC-133343],IC50,"[1]; dose response confirmation, read-out: Pf asexual growth inhibition assays IC50",242 nM
same,Unified cytotox,HepG2 cells [2]; HepG2 cytotoxicity unified across the three screens,49.62 µM
same,IC50,"HepG2 cells [2]; read-out: HepG2 cytotoxicity assay IC50, dose response confirmation",57500 nM
same,HepG2 cytoxicity,"HepG2 cells [2]; value reported with the Pb ODA screen, this manuscript",57.54 µM
same,Is compound selective in assay? Pb ODA active?,"[3]; 1: YES, 0: NO",1 (1: YES)
same,"% inhibition, Replicate A","[3]; primary screen at 1 μM, replicate A",63.88%
same,"% inhibition, Replicate B","[3]; primary screen at 1 μM, replicate B",36.72%
same,IC50,"[3]; read-out: Pb ODA IC50, this manuscript",2110 nM
same,IC50,"[3]; read-out: Pb Ookinete development assay IC50, dose response confirmation",2110 nM
same,IC50,[8],1240 nM
same,IC50,[9],390 nM
same,HepG2 cytoxicity,"HepG2 cells [10]; value reported with the Pf FGAA screen, ref Miguel-Blanco et al 2017",41.69 µM
same,HepG2 cytoxicity,"HepG2 cells [10]; value reported with the Pf GCT ATP screen, ref Almela et al 2016",>25 µM
same,Is compound selective in assay? Pf FGAA active?,[11],1 (1: YES)
same,Is compound selective in assay? Pf GC-ATP active?,[12],1 (1: YES)
"CCCCCCCc1c(C)nc2cc(OC)ccc2c1O [TCMDC-137173, endochin]",IC50,[1]; [13],35 nM
same,IC50,[1]; [14],35.2 nM
same,Pb ODA (this manuscript) HepG2 cytoxicity,HepG2 cells [2],100.00 µM
same,IC50,HepG2 cells [2]; [15],> 100000 nM
same,Is compound selective in assay? Pb ODA active?,[3],1 (key: 1: YES; 0: NO)
same,inhibition at 1 µM,[4]; [16],115%
same,inhibition at 1 µM,[4]; [17],101%
same,IC50,[4]; [18],< 0.06 µM
same,IC50,"[4]; read-out: Pb ODA (this manuscript) IC50 (µM), P. berghei ookinete development assay, this manuscript",0.0248 µM
same,IC50,"[4]; read-out: Pb Ookinete development assay IC50 (µM), dose response confirmation",0.025 µM
same,inhibition at 1 µM,[5]; [19],98.4%
same,"Pf DGFA Male, Expt 1",[6],94.68
same,"Pf DGFA Male, Expt 2",[6],60.36
same,"Pf DGFA Male, Expt 3",[6],74.13
same,"Pf DGFA Male, Expt 4",[6],77.74
same,% inhibition Pf DGFA (male) 1 μM (±SEM),"[6]; 1 μM, mean of four experiments",76.7% and 76.73%
same,inhibition at 1 µM,[6],76.7%
same,"Pf DGFA Female, Expt 1",[7],46.16
same,"Pf DGFA Female, Expt 2",[7],7.10
same,"Pf DGFA Female, Expt 3",[7],41.06
same,"Pf DGFA Female, Expt 4",[7],-10.25
same,% inhibition Pf DGFA (female) 1 μM (±SEM),[7],21.02%
same,inhibition at 1 µM,[7],21%
